Reference: PubChem BioAssay AID1963834 (Molecular Pharmacology Branch, DTP, NCI, 2024)

Tested on: 873145-292-R-J1-PDC complex spheroid viability
Assay: Anticancer human tumor 873145-292-R-J1-PDC patient-derived renal clear cell carcinoma cell line growth inhibition [POLQ]
Conditions: for IC50: curve of first compound; for viability, T/C: stronger effect = lower value
Procedure, shortened: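 Growth inhibition in 3D: complex spheroids (tumor PDC, HUVEC, MSC) treated with POLQ inhibitor combinations; where Cmax unknown, highest tested concentration 10 microM, except SN-38 at 1 microM.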

[1] = second compound 0.0316 µM, first compound 0.0316 µM
[2] = second compound 0.0316 µM, first compound 0.1 µM
[3] = second compound 0.1 µM, first compound 0.0316 µM
[4] = second compound 0.1 µM, first compound 0.1 µM
[5] = second compound 0.316 µM, first compound 0.0316 µM
[6] = second compound 0.316 µM, first compound 0.1 µM
[7] = second compound 1 µM, first compound 0.0316 µM
[8] = second compound 1 µM, first compound 0.1 µM
[9] = second compound 3.16 µM, first compound 0.0316 µM
[10] = second compound 3.16 µM, first compound 0.1 µM
[11] = second compound 10 µM, first compound 0.0316 µM
[12] = second compound 10 µM, first compound 0.1 µM
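Further: spheroids exposed to compounds for 7 days before viability readout.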
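Wherever viability, T/C is given: luminescence signal used as surrogate for viable cell content; 100% = DMSO vehicle control viability.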

## CC(=O)O[C@H]1C(=O)[C@@]2(C)[C@H]([C@H](OC(=O)c3ccccc3)[C@]3(O)C[C@H](OC(=O)[C@H](O)[C@@H](NC(=O)c4ccccc4)c4ccccc4)C(C)=C1C3(C)C)[C@]1(OC(C)=O)CO[C@@H]1C[C@@H]2O + COC1C(OC(N)=O)C(O)C(Oc2ccc3c(O)c(NC(=O)c4ccc(O)c(CC=C(C)C)c4)c(=O)oc3c2C)OC1(C)C
Second compound 0.0316 µM
  IC50: > 3 µM
Second compound 0.1 µM
  IC50: > 3 µM
Second compound 0.316 µM
  IC50: > 3 µM
Second compound 1 µM
  IC50: > 3 µM
Second compound 3.16 µM
  IC50: > 3 µM
Second compound 10 µM
  IC50: > 3 µM
Second compound 0.0316 µM, first compound 0.00949 µM
  viability, T/C: 90.9%
Second compound 0.0316 µM, first compound 0.03 µM
  viability, T/C: 67.2%
Second compound 0.0316 µM, first compound 0.0949 µM
  viability, T/C: 67.1%
Second compound 0.0316 µM, first compound 0.3 µM
  viability, T/C: 61.8%
Second compound 0.0316 µM, first compound 0.949 µM
  viability, T/C: 60.2%
Second compound 0.0316 µM, first compound 3 µM
  viability, T/C: 66.4%
Second compound 0.1 µM, first compound 0.00949 µM
  viability, T/C: 77.6%
Second compound 0.1 µM, first compound 0.03 µM
  viability, T/C: 75.2%
Second compound 0.1 µM, first compound 0.0949 µM
  viability, T/C: 73.9%
Second compound 0.1 µM, first compound 0.3 µM
  viability, T/C: 58.5%
Second compound 0.1 µM, first compound 0.949 µM
  viability, T/C: 58.5%
Second compound 0.1 µM, first compound 3 µM
  viability, T/C: 57.3%
Second compound 0.316 µM, first compound 0.00949 µM
  viability, T/C: 79.1%
Second compound 0.316 µM, first compound 0.03 µM
  viability, T/C: 73.5%
Second compound 0.316 µM, first compound 0.0949 µM
  viability, T/C: 66.6%
Second compound 0.316 µM, first compound 0.3 µM
  viability, T/C: 60.9%
Second compound 0.316 µM, first compound 0.949 µM
  viability, T/C: 55.7%
Second compound 0.316 µM, first compound 3 µM
  viability, T/C: 60.1%
Second compound 1 µM, first compound 0.00949 µM
  viability, T/C: 84%
Second compound 1 µM, first compound 0.03 µM
  viability, T/C: 77.7%
Second compound 1 µM, first compound 0.0949 µM
  viability, T/C: 74.8%
Second compound 1 µM, first compound 0.3 µM
  viability, T/C: 59%
Second compound 1 µM, first compound 0.949 µM
  viability, T/C: 57.6%
Second compound 1 µM, first compound 3 µM
  viability, T/C: 57.8%
Second compound 3.16 µM, first compound 0.00949 µM
  viability, T/C: 77.4%
Second compound 3.16 µM, first compound 0.03 µM
  viability, T/C: 72.5%
Second compound 3.16 µM, first compound 0.0949 µM
  viability, T/C: 70.1%
Second compound 3.16 µM, first compound 0.3 µM
  viability, T/C: 57.9%
Second compound 3.16 µM, first compound 0.949 µM
  viability, T/C: 58.1%
Second compound 3.16 µM, first compound 3 µM
  viability, T/C: 58.3%
Second compound 10 µM, first compound 0.00949 µM
  viability, T/C: 78.4%
Second compound 10 µM, first compound 0.03 µM
  viability, T/C: 69.1%
Second compound 10 µM, first compound 0.0949 µM
  viability, T/C: 62.3%
Second compound 10 µM, first compound 0.3 µM
  viability, T/C: 55.7%
Second compound 10 µM, first compound 0.949 µM
  viability, T/C: 64.1%
Second compound 10 µM, first compound 3 µM
  viability, T/C: 58.6%

## CC[C@@]1(O)C(=O)OCc2c1cc1n(c2=O)Cc2cc3c(CN(C)C)c(O)ccc3nc2-1 + COC1C(OC(N)=O)C(O)C(Oc2ccc3c(O)c(NC(=O)c4ccc(O)c(CC=C(C)C)c4)c(=O)oc3c2C)OC1(C)C
Second compound 0.0316 µM
  IC50: 0.0944 µM
Second compound 0.1 µM
  IC50: > 0.1 µM
Second compound 0.316 µM
  IC50: > 0.1 µM
Second compound 1 µM
  IC50: 0.0919 µM
Second compound 3.16 µM
  IC50: 0.0955 µM
Second compound 10 µM
  IC50: > 0.1 µM
Second compound 0.0316 µM, first compound 0.000316 µM
  viability, T/C: 100%
Second compound 0.0316 µM, first compound 0.001 µM
  viability, T/C: 98.3%
Second compound 0.0316 µM, first compound 0.00316 µM
  viability, T/C: 96.2%
Second compound 0.0316 µM, first compound 0.01 µM
  viability, T/C: 90%
[1]
  viability, T/C: 91.5%
[2]
  viability, T/C: 47.6%
Second compound 0.1 µM, first compound 0.000316 µM
  viability, T/C: 112%
Second compound 0.1 µM, first compound 0.001 µM
  viability, T/C: 97.6%
Second compound 0.1 µM, first compound 0.00316 µM
  viability, T/C: 90.8%
Second compound 0.1 µM, first compound 0.01 µM
  viability, T/C: 96.3%
[3]
  viability, T/C: 80.6%
[4]
  viability, T/C: 48.9%
Second compound 0.316 µM, first compound 0.000316 µM
  viability, T/C: 104%
Second compound 0.316 µM, first compound 0.001 µM
  viability, T/C: 89.3%
Second compound 0.316 µM, first compound 0.00316 µM
  viability, T/C: 92.9%
Second compound 0.316 µM, first compound 0.01 µM
  viability, T/C: 110%
[5]
  viability, T/C: 81.5%
[6]
  viability, T/C: 53.9%
Second compound 1 µM, first compound 0.000316 µM
  viability, T/C: 98.4%
Second compound 1 µM, first compound 0.001 µM
  viability, T/C: 95.3%
Second compound 1 µM, first compound 0.00316 µM
  viability, T/C: 92.8%
Second compound 1 µM, first compound 0.01 µM
  viability, T/C: 91%
[7]
  viability, T/C: 80.3%
[8]
  viability, T/C: 47.3%
Second compound 3.16 µM, first compound 0.000316 µM
  viability, T/C: 101%
Second compound 3.16 µM, first compound 0.001 µM
  viability, T/C: 97.8%
Second compound 3.16 µM, first compound 0.00316 µM
  viability, T/C: 92.7%
Second compound 3.16 µM, first compound 0.01 µM
  viability, T/C: 90.9%
[9]
  viability, T/C: 75.1%
[10]
  viability, T/C: 48.6%
Second compound 10 µM, first compound 0.000316 µM
  viability, T/C: 104%
Second compound 10 µM, first compound 0.001 µM
  viability, T/C: 100%
Second compound 10 µM, first compound 0.00316 µM
  viability, T/C: 91.7%
Second compound 10 µM, first compound 0.01 µM
  viability, T/C: 98.6%
[11]
  viability, T/C: 71.8%
[12]
  viability, T/C: 50.7%

## O=c1[nH]cc(F)c(=O)[nH]1 + COC1C(OC(N)=O)C(O)C(Oc2ccc3c(O)c(NC(=O)c4ccc(O)c(CC=C(C)C)c4)c(=O)oc3c2C)OC1(C)C
Second compound 0.0316 µM
  IC50: > 10 µM
Second compound 0.1 µM
  IC50: > 10 µM
Second compound 0.316 µM
  IC50: > 10 µM
Second compound 1 µM
  IC50: > 10 µM
Second compound 3.16 µM
  IC50: > 10 µM
Second compound 10 µM
  IC50: > 10 µM
[1]
  viability, T/C: 100%
[2]
  viability, T/C: 92.8%
Second compound 0.0316 µM, first compound 0.316 µM
  viability, T/C: 90.8%
Second compound 0.0316 µM, first compound 1 µM
  viability, T/C: 110%
Second compound 0.0316 µM, first compound 3.16 µM
  viability, T/C: 87.9%
Second compound 0.0316 µM, first compound 10 µM
  viability, T/C: 96.8%
[3]
  viability, T/C: 105%
[4]
  viability, T/C: 103%
Second compound 0.1 µM, first compound 0.316 µM
  viability, T/C: 85.2%
Second compound 0.1 µM, first compound 1 µM
  viability, T/C: 95.4%
Second compound 0.1 µM, first compound 3.16 µM
  viability, T/C: 89.2%
Second compound 0.1 µM, first compound 10 µM
  viability, T/C: 89.1%
[5]
  viability, T/C: 101%
[6]
  viability, T/C: 90%
Second compound 0.316 µM, first compound 0.316 µM
  viability, T/C: 87.1%
Second compound 0.316 µM, first compound 1 µM
  viability, T/C: 87.4%
Second compound 0.316 µM, first compound 3.16 µM
  viability, T/C: 109%
Second compound 0.316 µM, first compound 10 µM
  viability, T/C: 91.3%
[7]
  viability, T/C: 88.9%
[8]
  viability, T/C: 89.8%
Second compound 1 µM, first compound 0.316 µM
  viability, T/C: 86.2%
Second compound 1 µM, first compound 1 µM
  viability, T/C: 87.7%
Second compound 1 µM, first compound 3.16 µM
  viability, T/C: 100%
Second compound 1 µM, first compound 10 µM
  viability, T/C: 88.5%
[9]
  viability, T/C: 95%
[10]
  viability, T/C: 95.5%
Second compound 3.16 µM, first compound 0.316 µM
  viability, T/C: 90.2%
Second compound 3.16 µM, first compound 1 µM
  viability, T/C: 92.3%
Second compound 3.16 µM, first compound 3.16 µM
  viability, T/C: 101%
Second compound 3.16 µM, first compound 10 µM
  viability, T/C: 91.3%
[11]
  viability, T/C: 91.3%
[12]
  viability, T/C: 91.3%
Second compound 10 µM, first compound 0.316 µM
  viability, T/C: 92.5%
Second compound 10 µM, first compound 1 µM
  viability, T/C: 96.3%
Second compound 10 µM, first compound 3.16 µM
  viability, T/C: 93.1%
Second compound 10 µM, first compound 10 µM
  viability, T/C: 89.9%
